ChEMBL document CHEMBL5465560, “Selectivity Literature for EUbOPEN Chemogenomic Library” (2024)
Where a chain is given by its changes, count along the chain named.

How the values were obtained:
Details in all cases: at 1 µM
[1] = tested on: T1, Receptor-type tyrosine-protein kinase FLT3 (Homo sapiens), P36888 [K663Q]; assay: (§1) Selectivity interaction (KinomeScan (DiscoverX)) EUB0001049a FLT3
T1 sequence (whole entry): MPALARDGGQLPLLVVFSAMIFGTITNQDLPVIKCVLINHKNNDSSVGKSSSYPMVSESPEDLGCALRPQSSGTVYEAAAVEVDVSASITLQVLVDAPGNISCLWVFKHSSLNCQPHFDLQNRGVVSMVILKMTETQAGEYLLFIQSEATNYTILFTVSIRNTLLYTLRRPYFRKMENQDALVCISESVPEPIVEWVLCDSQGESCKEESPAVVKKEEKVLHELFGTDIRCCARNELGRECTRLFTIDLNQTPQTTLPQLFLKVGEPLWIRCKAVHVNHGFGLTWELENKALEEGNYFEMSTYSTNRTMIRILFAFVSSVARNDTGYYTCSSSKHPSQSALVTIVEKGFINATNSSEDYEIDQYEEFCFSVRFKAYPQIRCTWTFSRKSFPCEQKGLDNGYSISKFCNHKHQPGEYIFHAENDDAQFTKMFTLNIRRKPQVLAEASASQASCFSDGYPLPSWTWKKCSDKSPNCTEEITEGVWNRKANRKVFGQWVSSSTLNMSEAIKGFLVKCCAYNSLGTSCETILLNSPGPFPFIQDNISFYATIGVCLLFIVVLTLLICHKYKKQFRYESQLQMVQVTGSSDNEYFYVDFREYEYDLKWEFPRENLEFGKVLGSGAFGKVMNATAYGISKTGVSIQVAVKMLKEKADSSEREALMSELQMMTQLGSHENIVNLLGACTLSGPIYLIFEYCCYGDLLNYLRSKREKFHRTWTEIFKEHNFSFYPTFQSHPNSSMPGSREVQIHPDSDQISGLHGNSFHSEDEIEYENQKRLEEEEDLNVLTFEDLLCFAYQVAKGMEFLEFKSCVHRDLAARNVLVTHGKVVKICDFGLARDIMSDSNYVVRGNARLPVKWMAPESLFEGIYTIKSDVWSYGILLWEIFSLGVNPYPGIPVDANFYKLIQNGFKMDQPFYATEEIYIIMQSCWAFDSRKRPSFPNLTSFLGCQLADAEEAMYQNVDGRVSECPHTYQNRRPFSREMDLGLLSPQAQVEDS

[2] = tested on: Receptor-type tyrosine-protein kinase FLT3 (Homo sapiens), P36888 [UNDEFINED MUTATION]; assay: as §1
[3] = tested on: T2, Receptor-type tyrosine-protein kinase FLT3 (Homo sapiens), P36888 [R834Q]; assay: as §1
T2 sequence (whole entry): T1 sequence (whole entry) with Q663K, R834Q

[4] = tested on: T3, Receptor-type tyrosine-protein kinase FLT3 (Homo sapiens), P36888 [D835H]; assay: as §1
T3 sequence (whole entry): T1 sequence (whole entry) with Q663K, D835H

COc1cc(Nc2nc(C)cc(-c3cnn4nc(OC)ccc34)n2)cc(C(F)(F)F)c1
% of control [1]: 78% | % of control [2]: 81% | % of control [3]: 100% | % of control [4]: 93%
